Source: patent US7709478B2, “Acylated 6,7,8,9-tetrahydro-5H-benzocycloheptenyl amines and their use as pharmaceutical agents” (sanofi-aventis Deutschland GmbH, priority 2001, dated 2010)

System: eNOS promoter
Experiment: Activation of eNOS transcription (eNOS promoter-luciferase reporter gene assay)
Format: cell-based, human
Conditions: 18 h incubation; for EC50: EC50 of transcription induction ratio vs compound concentration, determined graphically, human endothelial cell line stably transfected with eNOS promoter-luciferase construct; for maximal fold induction / TIR(max): maximum transcription induction ratio (luciferase activity with compound / solvent alone), human endothelial cell line with eNOS promoter-luciferase construct; for maximal fold induction: read-out: TIR(max)
Protocol: Measurement of Activation of eNOS Transcription
Activation of eNOS transcription was measured as described in detail in Li et al. “Activation of protein kinase C alpha and/or epsilon enhances transcription of the human endothelial nitric oxide synthase gene”, Mol. Pharmacol. 1998; 53: 630-637.
Briefly, a 3.5 kB long fragment 5′ of the starting codon of the eNOS gene was cloned, sequenced and cloned in firefly luciferase expression plasmids to monitor activation of the eNOS promoter by reporter gene activity. A human endothelial cell line stable transfected and expressing this promoter-reporter construct was used for compound testing. Cells were incubated for 18 h with compounds.
All compounds were dissolved in sterile DMSO. A final concentration of 0.5% DMSO in complete medium was allowed. Induction of reporter gene expression in these cells was measured using a standard luciferase assay system (Promega, Cat. No E150) according to the manufacturer's instructions. Luciferase induction in cells incubated with compounds were compared to those incubated with solvent alone. The ratio of both activities (transcription induction ratio, TIR) was plotted as a function of compound concentration. Typically, TIR values started at low concentrations at a ratio of 1, indicating no compound effect, and extended up to a maximum TIR value TIR(max) which indicates the increase of the eNOS transcription. EC50 values of transcription induction ratios as a function of compound concentration were determined graphically.

SMILES | EC50 | maximal fold induction | TIR(max)
CNc1cncc(C(=O)N[C@H]2CCCc3ccccc3C2)n1 [Compound 116, (S)-6-METHYLAMINO-PYRAZINE-2-CARBOXYLIC ACID (6,7,8,9-TETRAHYDRO-5H-BENZOCYCLOHEPTEN-6-YL)-AMIDE] | 150 nM | 2.9 | –
Cc1nc(C)c(C(=O)NC2CCCc3ccccc3C2)o1 (stereo not shown) [Compound 58, 2,4-DIMETHYL-OXAZOLE-5-CARBOXYLIC ACID (6,7,8,9-TETRAHYDRO-5H-BENZOCYCLOHEPTEN-6-YL)-AMIDE] | 19000 nM | 2.5 | –
O=C(NC1CCCc2ccccc2C1)c1cnn(-c2ccc(Cl)cc2)c1C(F)(F)F (stereo not shown) [Compound 14, 1-(4-CHLORO-PHENYL)-5-TRIFLUOROMETHYL-1H-PYRAZOLE-4-CARBOXYLIC ACID (6,7,8,9-TETRAHYDRO-5H-BENZOCYCLOHEPTEN-6-YL)-AMIDE] | 1200 nM | 1.7 | –
CN(C)c1ccc(C(=O)N[C@H]2CCCc3ccccc3C2)cn1 [Compound 117, (S)-6-DIMETHYLAMINO-N-(6,7,8,9-TETRAHYDRO-5H-BENZOCYCLOHEPTEN-6-YL)-NICOTINAMIDE] | 136 nM | 3 | –
CN(C)c1cccc(C(=O)NC2CCCc3ccccc3C2)c1 (single isomer, unassigned) [Compound 43, 3-DIMETHYLAMINO-N-(6,7,8,9-TETRAHYDRO-5H-BENZOCYCLOHEPTEN-6-YL)-BENZAMIDE] | 80 nM | 3.2 | –
CNc1cncc(C(=O)NC2CCCc3ccccc3C2)n1 (stereo not shown) [Compound 76, 6-METHYLAMINO-PYRAZINE-2-CARBOXYLIC ACID (6,7,8,9-TETRAHYDRO-5H-BENZOCYCLOHEPTEN-6-YL)-AMIDE] | 572 nM | 3.1 | –
Cc1ccc(C(=O)N[C@H]2CCCc3ccccc3C2)cc1NS(C)(=O)=O [Compound 119, (S)-3-METHANESULFONYLAMINO-4-METHYL-N-(6,7,8,9-TETRAHYDRO-5H-BENZOCYCLOHEPTEN-6-YL)-BENZAMIDE] | 230 nM | 3 | –
O=C(NC1CCCc2ccccc2C1)c1ccc(Cl)nc1Cl (stereo not shown) [Compound 70, 2,6-DICHLORO-N-(6,7,8,9-TETRAHYDRO-5H-BENZOCYCLOHEPTEN-6-YL)-NICOTINAMIDE] | 2000 nM | 3.1 | –
O=C(NC1CCCc2ccccc2C1)c1cnn(-c2ccccc2)c1C(F)(F)F (single isomer, unassigned) [Compound 35, 1-PHENYL-5-TRIFLUOROMETHYL-1H-PYRAZOLE-4-CARBOXYLIC ACID (6,7,8,9-TETRAHYDRO-5H-BENZOCYCLOHEPTEN-6-YL)-AMIDE] | 3300 nM | – | 3.5
O=C(NC1CCCc2ccccc2C1)c1cnn(-c2ccccc2)c1C(F)(F)F (single isomer, unassigned) [Compound 34, 1-PHENYL-5-TRIFLUOROMETHYL-1H-PYRAZOLE-4-CARBOXYLIC ACID (6,7,8,9-TETRAHYDRO-5H-BENZOCYCLOHEPTEN-6-YL)-AMIDE] | 60 nM | 2.8 | –
Cc1cc(C(=O)NC2CCCc3ccccc3C2)c(C)[nH]1 (single isomer, unassigned; (+)) [Compound 49, (+)-2,5-DIMETHYL-1H-PYRROLE-3-CARBOXYLIC ACID (6,7,8,9-TETRAHYDRO-5H-BENZOCYCLOHEPTEN-6-YL)-AMIDE] | 40 nM | 3 | –
Cc1nc(N(C)C)sc1C(=O)N[C@H]1CCCc2ccccc2C1 [Compound 129, (S)-2-DIMETHYLAMINO-4-METHYL-THIAZOLE-5-CARBOXYLIC ACID (6,7,8,9-TETRAHYDRO-5H-BENZOCYCLOHEPTEN-6-YL)-AMIDE] | 100 nM | 3.1 | –
Nc1cccnc1C(=O)NC1CCCc2ccccc2C1 (stereo not shown) [Compound 144, 3-AMINO-PYRIDINE-2-CARBOXYLIC ACID (6,7,8,9-TETRAHYDRO-5H-BENZOCYCLOHEPTEN-6-YL)-AMIDE] | 10 nM | 2.9 | –
O=C(NC1CCCc2ccccc2C1)c1cnc2c(c1)CCCC2 (stereo not shown) [Compound 134, 5,6,7,8-TETRAHYDRO-QUINOLINE-3-CARBOXYLIC ACID (6,7,8,9-TETRAHYDRO-5H-BENZOCYCLOHEPTEN-6-YL)-AMIDE] | 3000 nM | 3.5 | –
Cc1cnc(C(=O)N[C@H]2CCCc3ccccc3C2)c(N)n1 [Compound 114, (S)-3-AMINO-5-METHYL-PYRAZINE-2-CARBOXYLIC ACID (6,7,8,9-TETRARYDRO-5H-BENZOCYCLOHEPTEN-6-YL)-AMIDE] | 30 nM | – | 2.9
CCOc1ccc(C(=O)NC2CCCc3ccccc3C2)cc1 (stereo not shown) [Compound 5, 4-ETHOXY-N-(6,7,8,9-TETRARYDRO-5H-BENZOCYCLOHEPTEN-6-YL)-BENZAMIDE] | < 80 nM | – | 3.0

SMILES | EC50 | maximal fold induction | TIR(max)
O=C(N[C@H]1CCCc2ccccc2C1)c1ccc(OCC(F)(F)F)cc1 [Compound 125, (S)—N-(6,7,8,9-TETRAHYDRO-5H-BENZOCYCLOHEPTEN-6-YL)-4-(2,2,2-TRIFLUORO-ETHOXY)-BENZAMIDE] | 40 nM | 3 | –
O=C(NC1CCCc2ccccc2C1)c1ccc(N2CCOCC2)nc1 (stereo not shown) [Compound 101, 6-MORPHOLIN-4-YL-N-(6,7,8,9-TETRAHYDRO-5H-BENZOCYCLOHEPTEN-6-YL)-NICOTINAMIDE] | 6000 nM | 3.1 | –
O=C(N[C@H]1CCCc2ccccc2C1)c1cccc(N2CCCC2)c1 [Compound 132, (S)-3-PYRROLIDIN-1-YL-N-(6,7,8,9-TETRAHYDRO-5H-BENZOCYCLOHEPTEN-6-YL)-BENZAMIDE] | 50 nM | 3.1 | –
Cc1ccc(C(=O)N[C@H]2CCCc3ccccc3C2)cc1N(C)C [Compound 131, (S)-3-DIMETHYLAMINO-4-METHYL-N-(6,7,8,9-TETRAHYDRO-5H-BENZOCYCLOHEPTEN-6-YL)-BENZAMIDE] | 440 nM | 3.1 | –
Cc1cnc(C(=O)NC2CCCc3ccccc3C2)c(N)n1 (stereo not shown) [Compound 59, 3-AMINO-5-METHYL-PYRAZINE-2-CARBOXYLIC ACID (6,7,8,9-TETRAHYDRO-5H-BENZOCYCLOHEPTEN-6-YL)-AMIDE] | 19 nM | 3.2 | –
Cc1cc(Cl)ccc1C(=O)NC1CCCc2ccccc2C1 (stereo not shown) [Compound 3, 4-CHLORO-2-METHYL-N-(6,7,8,9-TETRAHYDRO-5H-BENZOCYCLOHEPTEN-6-YL)-BENZAMIDE] | < 80 nM | 2.2 | –
CS(=O)(=O)c1cccc(C(=O)NC2CCCc3ccccc3C2)c1 (stereo not shown) [Compound 139, 3-METHANESULFONYL-N-(6,7,8,9-TETRAHYDRO-5H-BENZOCYCLOHEPTEN-6-YL)-BENZAMIDE] | 1900 nM | 3 | –
Cc1ccc(S(C)(=O)=O)cc1C(=O)NC1CCCc2ccccc2C1 (stereo not shown) [Compound 140, 5-METHANESULFONYL-2-METHYL-N-(6,7,8,9-TETRAHYDRO-5H-BENZOCYCLOHEPTEN-6-YL)-BENZAMIDE] | 1300 nM | 3 | –
Nc1nc(Cl)ccc1C(=O)N[C@H]1CCCc2ccccc2C1 [Compound 128, (S)-2-AMINO-6-CHLORO-N-(6,7,8,9-TETRAHYDRO-5H-BENZOCYCLOHEPTEN-6-YL)-NICOTINAMIDE] | 2 nM | 3.1 | –
CS(=O)(=O)Nc1cc(C(=O)NC2CCCc3ccccc3C2)ccc1Cl (stereo not shown) [Compound 98, 4-CHLORO-3-METHANESULFONYLAMIINO-N-(6,7,8,9-TETRAHYDRO-5H-BENZOCYCLOHEPTEN-6-YL)-BENZAMIDE] | 574 nM | – | 2.6
Cc1ncccc1C(=O)NC1CCCc2ccccc2C1 (single isomer, unassigned) [Compound 26, 2-METHYL-N-(6,7,8,9-TETRAHYDRO-5H-BENZOCYCLOHEPTEN-6-YL)-NICOTINAMIDE] | 1800 nM | 3.1 | –
Cc1nc(C)c(C(=O)NC2CCCc3ccccc3C2)s1 (single isomer, unassigned) [Compound 28, 2,4-DIMETHYL-THIAZOLE-5-CARBOXYLIC ACID (6,7,8,9-TETRAHYDRO-5H-BENZOCYCLOHEPTEN-6-YL)-AMIDE] | 49 nM | 3.4 | –
O=C(NC1CCCc2ccccc2C1)c1ccc(F)cc1Cl (stereo not shown) [Compound 4, 2-CHLORO-4-FLUORO-N-(6,7,8,9-TETRAHYDRO-5H-BENZOCYCLOHEPTEN-6-YL)-BENZAMIDE] | < 80 nM | 2.8 | –
Cc1nc(N)c(C(=O)NC2CCCc3ccccc3C2)nc1C (stereo not shown) [Compound 72, 3-AMINO-5,6-DIMETHYL-PYRAZINE-2-CARBOXYLIC ACID (6,7,8,9-TETRAHYDRO-5H-BENZOCYCLOHEPTEN-6-YL)-AMIDE] | 71 nM | 3.1 | –
Cc1ccc(C(=O)NC2CCCc3ccccc3C2)cn1 (single isomer, unassigned) [Compound 54, 6-METHYL-N-(6,7,8,9-TETRAHYDRO-5H-BENZOCYCLOHEPTEN-6-YL)-NICOTINAMIDE] | 42 nM | 3.2 | –
Cc1cc(C(=O)NC2CCCc3ccccc3C2)c(C)n1Cc1ccncc1 (single isomer, unassigned; (-)) [Compound 48, (−)-2,5-DIMETHYL-1-PYRIDIN-4-YLMETHYL-1H-PYRROLE-3-CARBOXYLIC ACID (6,7,8,9-TETRAHYDRO-5H-BENZOCYCLOHEPTEN-6-YL)-AMIDE] | 590 nM | – | 3.4
